Assay results published in BindingDB's records for doi:10.1016/s0960-894x(00)00478-9 (Laval University, 2001).

Tests used:
[1] = The compound was evaluated for inhibition of Glutaminyl-tRNA synthetase with respect to glutamine.
[2] = molecular target: Glutamine--tRNA ligase (Escherichia coli) (UniProt P00962); experiment: The compound was evaluated for inhibition of Glutaminyl-tRNA synthetase for Escherichia coli with respect to ATP.
Sequence of Glutamine--tRNA ligase (Escherichia coli) (P00962 whole entry, looked up): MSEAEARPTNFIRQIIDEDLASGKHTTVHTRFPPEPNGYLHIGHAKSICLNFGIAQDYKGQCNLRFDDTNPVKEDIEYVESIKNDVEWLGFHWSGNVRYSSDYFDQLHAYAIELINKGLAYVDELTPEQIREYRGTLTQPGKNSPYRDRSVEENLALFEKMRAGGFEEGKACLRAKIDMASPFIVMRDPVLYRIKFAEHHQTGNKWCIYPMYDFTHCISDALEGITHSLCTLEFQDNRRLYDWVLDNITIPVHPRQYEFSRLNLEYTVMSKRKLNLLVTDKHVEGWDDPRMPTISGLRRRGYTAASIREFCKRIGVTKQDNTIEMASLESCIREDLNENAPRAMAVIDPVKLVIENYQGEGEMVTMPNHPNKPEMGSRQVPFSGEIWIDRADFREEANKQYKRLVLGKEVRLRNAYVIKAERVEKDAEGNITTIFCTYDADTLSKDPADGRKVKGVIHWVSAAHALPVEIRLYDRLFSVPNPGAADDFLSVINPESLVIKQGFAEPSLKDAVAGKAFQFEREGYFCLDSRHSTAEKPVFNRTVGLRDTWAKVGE

SMILES: NC(=O)CCC(N)COP(=O)(O)OC[C@H]1OC(n2cnc3c(N)ncnc32)[C@H](O)[C@@H]1O (some centres not stated)
- Ki [1]: 280 nM
- Ki [2]: 860 nM
